Data from article PMC6452851, “Properties of a cryptic lysyl oxidase from haloarchaeon Haloterrigena turkmenica” (PeerJ, 2019).

Tests used:
[1] = target: T1, HTU-LOX (HTU-QV variant) (Haloterrigena turkmenica, UniProt D2RU96); test: Amplex red / horseradish peroxidase fluorometric H2O2 release assay; format: biochemical; settings: inhibitor, bought as fumarate salt; 0.1 mM used as negative control; 0.1 M borate pH 8.3, 37 °C
T1 construct: gene Htur_0264; delta1-91, catalytic domain, N-terminus Gln92-Val; His-tag kept (pQE-30); full-length protein 308 residues, 33,829 Da

[2] = target: T2, HTU-LOX (HTU-AA variant) (Haloterrigena turkmenica, UniProt D2RU96); test: as above; format: biochemical; settings: 0.1 M borate pH 8.3, 37 °C; Cu2+-refolded enzyme
T2 construct: gene Htur_0264; delta1-34, signal peptide removed, N-terminus Ala35-Ala; His-tag kept (pQE-30); full-length protein 308 residues
T2 sequence (D2RU96 35-296): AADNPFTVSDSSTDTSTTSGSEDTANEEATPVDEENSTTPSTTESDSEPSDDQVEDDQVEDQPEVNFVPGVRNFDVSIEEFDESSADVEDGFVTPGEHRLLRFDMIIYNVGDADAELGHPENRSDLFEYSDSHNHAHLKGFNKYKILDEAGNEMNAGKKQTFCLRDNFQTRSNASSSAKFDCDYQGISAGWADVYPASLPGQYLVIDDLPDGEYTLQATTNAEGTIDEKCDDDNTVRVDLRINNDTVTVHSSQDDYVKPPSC

| SMILES | Amplex red / horseradish peroxidase fluorometric H2O2 release assay [1] | Amplex red / horseradish peroxidase fluorometric H2O2 release assay [2] |
| --- | --- | --- |
| N#CCCN [3-aminopropionitrile] | HTU-LOX demonstrated good sensitivity to the classical inhibitor of all LOXes—3-aminopropionitrile (BAPN) | – |
| NCCc1c[nH]cn1 [histamine] | – | Refolded proteins HTU-QV and HTU-AA exhibit activity against a wide variety of primary amines |
